{"source": "patent US11680050B2", "about": "“Crystalline forms of ozanimod and ozanimod hydrochloride, and processes for preparation thereof” (RECEPTOS LLC, priority 2016, dated 2023)", "type_in_all_cases": "physicochemical", "key": {"[1]": {"experiment": "Particle size distribution test (laser particle size analyzer, wet process)", "conditions": "for MV, average particle size calculated by volume: dispersion medium Isopar G; for D10 / D50 (median diameter) / D90: volume distribution, Isopar G", "experimental": "The particle size distribution test in the present disclosure is acquired by the S3500 laser particle size analyzer of Microtrac. Microtrac S3500 is equipped with the SDC (Sample Delivery Controller). The test is carried out by wet process, and the dispersion medium is Isopar G The parameters are as follow:\nCertain amount of samples of Form CS1, Form CS2, Form CS3, Form CS5, Form CS6 of ozanimod and Form CS1 of ozanimod hydrochloride were taken for particle size distribution test."}, "[2]": {"experiment": "Stability assessment in constant temperature and humidity chambers (HPLC purity, XRPD crystalline form)", "conditions": "for 1 week purity % / 2 week purity % / 4 week purity %: HPLC; for Change of the crystalline form: XRPD; for Stability, overall conclusion of the storage test: after storage under all conditions tested for the form", "experimental": "(§1) Three solid samples of Form CS1 were placed in constant temperature and humidity chambers at 25° C./60% RH, 40° C./75% RH and 60° C./75% RH for 4 weeks. XRPD was used to test the crystalline form at the end of week 4. HPLC was used to measure the chemical purity at the end of week 1, 2, and 4. The XRPD comparison result is shown in FIG. 31 (from top to bottom: XRPD pattern of Form CS1 before and after being stored under 25° C./60% RH, 40° C./75% RH and 60° C./75% RH for 4 weeks), and the results are shown in Table 20.\nas §1, with “Four” for “Three”, “CS2” for “CS1”, “weeks and 80° C. for 1 week.” for “weeks.”, “32” for “31”, “weeks and 80° C. for 1 week),” for “weeks),”, “21.” for “20.”\nas §1, with “Form CS3” for “Form CS1”, “comparison pattern” for “comparison result”, “FIG. 33” for “FIG. 31”, “Table 22.” for “Table 20.”\nas §1, with “Form CS5” for “Form CS1”, “for 2” for “for 4”, “[…].” for “4. HPLC was used to measure the chemical purity at the end of week 1, 2, and 4.”, “comparison pattern” for “comparison result”, “FIG. 34” for “FIG. 31”, “Table 23.” for “Table 20.”\nTwo samples of Form CS6 were placed in constant temperature and humidity chambers at 25° C./60% RH and 40° C./75% RH for 4 weeks. XRPD was used to test the crystalline form at the end of week 4. HPLC was used to measure the chemical purity at the end of week 1, 2, and 4.The XRPD comparison result is shown in FIG. 35 (from top to bottom: XRPD pattern of Form CS6 before and after being stored under 25° C./60% RH and 40° C./75% RH for 4 weeks), and the results are shown in Table 24.\nFour samples of Form CS1 of ozanimod hydrochloride were placed in constant temperature and humidity chambers at 25° C./60% RH, 40° C./75% RH and 60° C./75% RH for 4 weeks and 80° C. for 1 week. XRPD was used to test the crystalline form at the end of week 4. HPLC was used to measure the chemical purity at the end of week 1, 2, and 4. The XRPD comparison pattern is shown in FIG. 36 (from top to bottom: XRPD pattern of ozanimod hydrochloride Form CS1 before and after being stored under 25° C./60% RH, 40° C./75% RH and 60° C./75% RH for 4 weeks and 80° C. for 1 week), and the results are shown in Table 25."}, "[3]": {"experiment": "Solubility assessment of saturated solutions in SGF, FeSSIF and water, measured by HPLC", "experimental": "Form CS1 and Form CS1 of ozanimod hydrochloride were suspended into SGF (Simulated gastric fluids) and FeSSIF (Fed state simulated intestinal fluids, pH=5.0) to obtain saturated solutions. After being equilibrated for 1 h, 4 h and 24 h, concentrations of the saturated solutions were measured by HPLC.\nForm CS3 and Form CS5 were suspended into SGF (Simulated gastric fluids) and water, and Form CS2 was suspended into FeSSIF (Fed state simulated intestinal fluids) to obtain saturated solutions. After being equilibrated for 1 h, 4 h and 24 h, concentrations of the saturated solutions were measured by HPLC."}, "[4]": {"experiment": "Mechanical stability, manual grinding for 5 minutes in mortar, XRPD", "conditions": "ground manually for 5 minutes, XRPD before and after", "experimental": "Solid samples of Form CS3, Form CS5, Form CS6 of ozanimod and Form CS1 of ozanimod hydrochloride were ground manually for 5 minutes in mortar."}, "[5]": {"experiment": "Hygroscopicity assessment by dynamic vapor sorption (DVS)", "conditions": "for Weight gain under 80% RH: DVS, 25° C.", "experimental": "Dynamic Vapor Sorption (DVS) is measured via an SMS (Surface Measurement Systems Ltd.) intrinsic DVS. Typical Parameters for DVS test are as follows:\nGas and flow rate: N2, 200 mL/min\nRH range: 0% RH to 95% RH […]\nDynamic vapor sorption (DVS) was applied to test hygroscopicity of Form CS1 of ozanimod hydrochloride with about 10 mg of samples.\nDescription and definition of hygroscopicity (Chinese Pharmacopoeia 2015 edition appendix Drug hygroscopic test guidelines, test at 25° C.+/−1° C., 80% RH). • deliquescent: Sufficient water is absorbed to form a liquid; • very hygroscopic: Increase in mass is equal to or greater than 15 percent; • hygroscopic: Increase in mass is less than 15 percent and equal to or greater than 2 percent; • slightly hygroscopic: Increase in mass is less than 2 percent and equal to or greater than 0.2 percent. • non hygroscopic or almost non hygroscopic: Increase in mass is less than 0.2 percent."}}}
{"smiles": "CC(C)Oc1ccc(-c2nc(-c3cccc4c3CC[C@@H]4NCCO)no2)cc1C#N", "note": "[Form CS3, ozanimod]", "values": [{"measurement": "MV, average particle size calculated by volume", "setting": "[1]", "value": 66.62, "unit": "μm"}, {"measurement": "D10", "setting": "[1]", "value": 20.36, "unit": "μm"}, {"measurement": "D50 (median diameter)", "setting": "[1]", "value": 51.80, "unit": "μm"}, {"measurement": "D90", "setting": "[1]", "value": 130.8, "unit": "μm"}, {"measurement": "1 week purity %", "setting": "[2]; 25° C./60% RH", "value": 99.53, "unit": "%"}, {"measurement": "2 week purity %", "setting": "[2]; 25° C./60% RH, 2 weeks", "value": 99.30, "unit": "%"}, {"measurement": "4 week purity %", "setting": "[2]; 25° C./60% RH, 4 weeks", "value": 99.31, "unit": "%"}, {"measurement": "Change of the crystalline form", "setting": "[2]; 25° C./60% RH, 4 weeks", "value": "No change"}, {"measurement": "1 week purity %", "setting": "[2]; 40° C./75% RH", "value": 99.52, "unit": "%"}, {"measurement": "2 week purity %", "setting": "[2]; 40° C./75% RH, 2 weeks", "value": 99.28, "unit": "%"}, {"measurement": "4 week purity %", "setting": "[2]; 40° C./75% RH, 4 weeks", "value": 99.17, "unit": "%"}, {"measurement": "Change of the crystalline form", "setting": "[2]; 40° C./75% RH, 4 weeks", "value": "No change"}, {"measurement": "1 week purity %", "setting": "[2]; 60° C./75% RH", "value": 99.36, "unit": "%"}, {"measurement": "2 week purity %", "setting": "[2]; 60° C./75% RH, 2 weeks", "value": 98.84, "unit": "%"}, {"measurement": "4 week purity %", "setting": "[2]; 60° C./75% RH, 4 weeks", "value": 98.54, "unit": "%"}, {"measurement": "Change of the crystalline form", "setting": "[2]; 60° C./75% RH, 4 weeks", "value": "No change"}, {"measurement": "Stability, overall conclusion of the storage test", "setting": "[2]", "value": "good stability"}, {"measurement": "Solubility", "setting": "[3]; SGF, 1 h", "value": 540, "unit": "µg/mL"}, {"measurement": "Solubility", "setting": "[3]; SGF, 4 h", "value": 520, "unit": "µg/mL"}, {"measurement": "Solubility", "setting": "[3]; SGF, 24 h", "value": 540, "unit": "µg/mL"}, {"measurement": "solubility at 1 h", "setting": "[3]; water, thermodynamic from solid, H2O, 1 h", "value": 170, "unit": "µg/mL"}, {"measurement": "solubility at 24 h", "setting": "[3]; water, thermodynamic from solid, H2O, 24 h", "value": 350, "unit": "µg/mL"}, {"measurement": "Form change under mechanical stress", "setting": "[4]", "value": "No form change"}, {"measurement": "Weight gain under 80% RH", "setting": "[5]", "value": 2.25, "unit": "%"}]}
{"smiles": "CC(C)Oc1ccc(-c2nc(-c3cccc4c3CC[C@@H]4NCCO)no2)cc1C#N", "note": "[Form CS5, ozanimod]", "values": [{"measurement": "MV, average particle size calculated by volume", "setting": "[1]", "value": 68.84, "unit": "μm"}, {"measurement": "D10", "setting": "[1]", "value": 6.55, "unit": "μm"}, {"measurement": "D50 (median diameter)", "setting": "[1]", "value": 41.10, "unit": "μm"}, {"measurement": "D90", "setting": "[1]", "value": 173.3, "unit": "μm"}, {"measurement": "Change of the crystalline form", "setting": "[2]; 25° C./60% RH, 2 weeks", "value": "No change"}, {"measurement": "Change of the crystalline form", "setting": "[2]; 40° C./75% RH, 2 weeks", "value": "No change"}, {"measurement": "Change of the crystalline form", "setting": "[2]; 60° C./75% RH, 2 weeks", "value": "No change"}, {"measurement": "Stability, overall conclusion of the storage test", "setting": "[2]", "value": "good stability"}, {"measurement": "Solubility", "setting": "[3]; H2O, 24 h", "value": 270, "unit": "µg/mL"}, {"measurement": "Solubility", "setting": "[3]; SGF, 4 h", "value": 1000, "unit": "µg/mL"}, {"measurement": "Solubility", "setting": "[3]; SGF, 24 h", "value": 770, "unit": "µg/mL"}, {"measurement": "solubility at 4 h", "setting": "[3]; water, thermodynamic from solid, H2O, 4 h", "value": 260, "unit": "µg/mL"}, {"measurement": "Form change under mechanical stress", "setting": "[4]", "value": "No form change"}, {"measurement": "Hygroscopicity class according to the definition of hygroscopicity", "setting": "[5]; Chinese Pharmacopoeia 2015, 25° C., 80% RH", "value": "slightly hygroscopic (Increase in mass is less than 2 percent and equal to or greater than 0.2 percent)"}, {"measurement": "Weight gain under 80% RH", "setting": "[5]", "value": 0.23, "unit": "%"}]}
